Results as given in US11919902B2, “Aryl-bipyridine amine derivatives as phosphatidylinositol phosphate kinase inhibitors” (HiberCell, Inc., priority 2017, dated 2024).

Assays:
[1] = biological target: T1, PIP4K2A (full length protein, SignalChem) (Homo sapiens, UniProt P48426); test: Kinase Assay PIP4K2 A (Sprint); ADP-Glo biochemical assay; conditions: Table 2; compounds listed under IC50 range headings
T1 construct: 4 nM PIP4K2A (full length protein, SignalChem); purchased SignalChem
T1 sequence (P48426 1-406): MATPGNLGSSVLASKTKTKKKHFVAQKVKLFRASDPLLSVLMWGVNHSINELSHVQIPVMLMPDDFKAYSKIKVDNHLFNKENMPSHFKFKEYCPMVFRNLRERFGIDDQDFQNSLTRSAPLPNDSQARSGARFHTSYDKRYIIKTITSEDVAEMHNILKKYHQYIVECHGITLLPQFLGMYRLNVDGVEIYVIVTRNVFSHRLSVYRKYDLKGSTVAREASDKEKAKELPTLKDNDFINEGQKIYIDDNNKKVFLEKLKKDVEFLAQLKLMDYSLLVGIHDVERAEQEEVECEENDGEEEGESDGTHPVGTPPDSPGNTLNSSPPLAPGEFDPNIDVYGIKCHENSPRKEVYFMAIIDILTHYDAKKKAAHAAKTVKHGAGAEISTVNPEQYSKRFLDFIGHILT
Summary of the method: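 ADP-Glo luminescence detected ADP after a 1 h RT reaction started with 60 μM ATP solution. Before that, full-length PIP4K2A (4 nM in mix) with 100 μM PI(5)P diC8 was pre-incubated 15 min with compounds in MOPS buffer pH 7.2, 25 mM MgCl2, 0.005% Tween 20. IC50 derived from % inhibition relative to DMSO over 10 three-fold concentrations.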

[2] = biological target: T2, GST tagged PIP4KtypeIIA (Homo sapiens, UniProt P48426); test: ADP-glo kinase assay PIP4K 2A (PIP4KtypeIIA inhibition assay); assay type: biochemical; conditions: Table 3; compounds listed under IC50 range headings; 10 uM ATP, 0.5 nM PIP4KIIA
T2 construct: made in house; host or cells: E. coli
T2 sequence (P48426 1-406): T1 sequence (P48426 1-406)
Summary of the method: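 Read-out was ADP-Glo luminescence converted to μM ADP, with IC50 plotted as % of no-inhibitor activity against log concentration. Reactions contained 10 μM ATP, 80 μM PI5P with DOPE carrier, and 0.5 nM GST-tagged PIP4KIIA (E. coli-expressed) in pH 7.3 HEPES/MgCl2 buffer with 5% DMSO. Enzyme and compound (≤4.8 μM) were preincubated 1 h at 27 °C before the 1 h reaction.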

[3] = biological target: T3, GST tagged PIP4KtypeIIB (Homo sapiens, UniProt P78356); test: Trans-FI P kinase assay PIP4K2B (PIP4KtypeIIB inhibition assay); assay type: biochemical; conditions: Table 4; compounds listed under IC50 range headings; 100 uM GTP, 5 nM PIP4KIIB; read-out: Trans-FI P kinase assays: PIP4K2B IC50
T3 construct: made in house; host or cells: E. coli
T3 sequence (P78356 1-416): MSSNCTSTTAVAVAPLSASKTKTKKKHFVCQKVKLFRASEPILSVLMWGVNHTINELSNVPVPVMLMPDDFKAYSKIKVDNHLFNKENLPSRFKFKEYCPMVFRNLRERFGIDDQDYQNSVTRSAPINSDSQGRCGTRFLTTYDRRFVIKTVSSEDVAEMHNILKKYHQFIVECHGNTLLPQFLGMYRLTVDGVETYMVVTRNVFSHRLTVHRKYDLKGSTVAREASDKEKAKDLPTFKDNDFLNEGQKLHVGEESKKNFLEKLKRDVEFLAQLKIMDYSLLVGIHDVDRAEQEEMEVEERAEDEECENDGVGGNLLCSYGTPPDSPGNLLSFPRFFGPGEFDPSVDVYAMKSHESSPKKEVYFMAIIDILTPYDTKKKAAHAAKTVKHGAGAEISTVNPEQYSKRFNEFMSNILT
Summary of the method: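 Transcreener FI fluorescence, converted to GDP by calibration, tracked product from 5 nM E. coli-expressed GST-PIP4KIIB acting on 80 uM PI5P (DOPE carrier) with 100 uM GTP. Compound (top 4.8 uM final, 5% DMSO) was preincubated 1 h at 27 C before the 2 h reaction; IC50 fitted from residual activity.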

Row | IC50 [1] | IC50 [2] | IC50 [3] | SMILES
1 | 0.005 to 0.1 µM | 0.1 to 1 µM | 0.1 to 1 µM | O=C1NCc2c(-c3cncc(-c4ccc(N5CCCC5=O)cc4)c3)ccnc21 [Example 78, 4-[5-[4-(2-Oxopyrrolidin-1-yl)phenyl]-3-pyridyl]-5,6-dihydropyrrolo[3,4-b]pyridin-7-one]
2 | 1 to 2.5 µM | > 5 µM | 2.5 to 5 µM | O=C1CCCN1c1ccc(-c2cncc(-c3ccc(=O)[nH]c3)c2)cc1 [Example 36, 5′-(4-(2-oxopyrrolidin-1-yl)phenyl)-[3,3′-bipyridin]-6(1H)-one]
3 | 0.005 to 0.1 µM | 0.01 to 0.1 µM | 0.01 to 0.1 µM | CC(C)OC(=O)c1cc2c(-c3cncc(-c4ccc(N5CCCC5=O)cc4)c3)ccnc2o1 [Example 167, isopropyl 4-(5-(4-(2-oxopyrrolidin-1-yl)phenyl)pyridin-3-yl)furo[2,3-b]pyridine-2-carboxylate]
4 | 1 to 2.5 µM | > 5 µM | 1 to 2.5 µM | CN(C)C(=O)c1ccc(-c2cc(-c3ccnc(CNC(=O)c4cccc(N)c4)c3)cnc2N)nc1 [Example 191, 2′-amino-2″-((3-aminobenzamido)methyl)-N,N-dimethyl-[2,3′:5′,4″-terpyridine]-5-carboxamide]
5 | < 5 µM | > 5 µM | > 5 µM | CN(C)C(=O)c1ccc(-c2cc(-c3ccnc4cccc(C#N)c34)cnc2N)nc1 [Example 118, 2′-amino-5′-(5-cyanoquinolin-4-yl)-N,N-dimethyl-[2,3′-bipyridine]-5-carboxamide]
6 | 0.1 to 1 µM | 1 to 2.5 µM | 1 to 2.5 µM | Cc1c(-c2ccc(N3CCCC3=O)cc2)cncc1-c1cn(C)c2ncc(C(C)(C)O)cc12 [Example 172, 1-(4-(5-(5-(2-hydroxypropan-2-yl)-1-methyl-1H-pyrrolo[2,3-b]pyridin-3-yl)-4-methylpyridin-3-yl)phenyl)pyrrolidin-2-one]
7 | 0.005 to 0.1 µM | 0.1 to 1 µM | 0.1 to 1 µM | O=C1CCCN1c1ccc(-c2cncc(-c3c[nH]c(=O)c4[nH]ncc34)c2)cc1 [Example 74, 4-(5-(4-(2-oxopyrrolidin-1-yl)phenyl)pyridin-3-yl)-1,6-dihydro-7H-pyrazolo[3,4-c]pyridin-7-one]
8 | 0.1 to 1 µM | 0.1 to 1 µM | 0.1 to 1 µM | CN(C)C(=O)c1ccc(-c2cc(-c3cc(Nc4cccc(N)c4)ncn3)cnc2N)nc1 [Example 216, 2′-amino-5′-(6-((3-aminophenyl)amino)pyrimidin-4-yl)-N,N-dimethyl-[2,3′-bipyridine]-5-carboxamide]
9 | 1 to 2.5 µM | > 5 µM | 2.5 to 5 µM | CN(C)C(=O)c1ccc(-c2cc(-c3ccnc(CNC(=O)CCc4cccc(N)c4)c3)cnc2N)nc1 [Example 194, 2′-amino-2″-((3-(3-aminophenyl)propanamido)methyl)-N,N-dimethyl-[2,3′:5′,4″-terpyridine]-5-carboxamide]
10 | 0.005 to 0.1 µM | 0.1 to 1 µM | 0.1 to 1 µM | Cn1cc(-c2cncc(-c3ccc(N4CCCC4=O)cc3)c2)c2cnn(C)c2c1=O [Example 55, 1,6-dimethyl-4-(5-(4-(2-oxopyrrolidin-1-yl)phenyl)pyridin-3-yl)-1,6-dihydro-7H-pyrazolo[3,4-c]pyridin-7-one]
11 | 0.005 to 0.1 µM | 0.01 to 0.1 µM | 0.01 to 0.1 µM | CC(C)Cn1cc(-c2cncc(-c3ccc(N4CCCC4=O)cc3)c2)c2cn[nH]c2c1=O [Example 68, 6-isobutyl-4-(5-(4-(2-oxopyrrolidin-1-yl)phenyl)pyridin-3-yl)-1,6-dihydro-7H-pyrazolo[3,4-c]pyridin-7-one]
12 | 0.1 to 1 µM | 2.5 to 5 µM | 1 to 2.5 µM | CN(C)C(=O)c1ccc(-c2cc(-c3ccnc4nc[nH]c34)cnc2N)nc1 [Example 213, 2′-amino-5′-(1H-imidazo[4,5-b]pyridin-7-yl)-N,N-dimethyl-[2,3′-bipyridine]-5-carboxamide]
13 | < 5 µM | > 5 µM | > 5 µM | Nc1ncc(Br)cc1-c1ccc(N2CCCC2=O)cn1 [Example 22, 1-(2′-amino-5′-bromo-[2,3′-bipyridin]-5-yl)pyrrolidin-2-one]
14 | < 5 µM | > 5 µM | > 5 µM | CN(C[C@H]1CC[C@H](N)CC1)C(=O)c1ccc(-c2cncc(-c3ccncc3)c2)cc1 [Example 181, 4-([3,4′-bipyridin]-5-yl)-N-(((1r,4r)-4-aminocyclohexyl)methyl)-N-methylbenzamide]
15 | 0.005 to 0.1 µM | 0.1 to 1 µM | 0.1 to 1 µM | O=C1CCCN1c1ccc(-c2cncc(-c3cn(Cc4ccccc4)c(=O)c4[nH]ncc34)c2)cc1 [Example 67, 6-benzyl-4-(5-(4-(2-oxopyrrolidin-1-yl)phenyl)pyridin-3-yl)-1,6-dihydro-7H-pyrazolo[3,4-c]pyridin-7-one]
16 | 1 to 2.5 µM | > 5 µM | > 5 µM | CN(C)C(=O)c1ccc(-c2cc(-c3cnc4c(c3)c(-c3cncnc3)nn4C)cnc2N)nc1 [Example 124, 2′-amino-N,N-dimethyl-5′-(1-methyl-3-(pyrimidin-5-yl)-1H-pyrazolo[3,4-b]pyridin-5-yl)-[2,3′-bipyridine]-5-carboxamide]
17 | 0.005 to 0.1 µM | 0.1 to 1 µM | 0.1 to 1 µM | Cc1c(-c2cncc(-c3ccc(N4CCCC4=O)cc3)c2)c2cc(C(=O)N(C)C)cnc2n1C [Example 249, N,N,1,2-tetramethyl-3-(5-(4-(2-oxopyrrolidin-1-yl)phenyl)pyridin-3-yl)-1H-pyrrolo[2,3-b]pyridine-5-carboxamide]
18 | < 5 µM | > 5 µM | > 5 µM | O=C1CCCN1c1ccc(-c2cncc(-c3c(OC4CCCNC4)cnc4[nH]ccc34)c2)cc1 (stereo not drawn) [Example 66, 1-(4-(5-(5-(piperidin-3-yloxy)-1H-pyrrolo[2,3-b]pyridin-4-yl)pyridin-3-yl)phenyl)pyrrolidin-2-one]
19 | 0.005 to 0.1 µM | 0.01 to 0.1 µM | 0.01 to 0.1 µM | CN(C)C(=O)c1cc2c(-c3cncc(-c4ccc(N5CCCC5=O)cc4)c3)ccnc2[nH]1 [Example 241, N,N-dimethyl-4-(5-(4-(2-oxopyrrolidin-1-yl)phenyl)pyridin-3-yl)-1H-pyrrolo[2,3-b]pyridine-2-carboxamide]
20 | 0.1 to 1 µM | 0.1 to 1 µM | 0.1 to 1 µM | CN(C)C(=O)c1ccc(-c2cncc(-c3c[nH]c4ncccc34)c2)cc1 [Example 10, 4-(5-(1H-pyrrolo[2,3-b]pyridin-3-yl)pyridin-3-yl)-N,N-dimethylbenzamide]
21 | 0.1 to 1 µM | 1 to 2.5 µM | 2.5 to 5 µM | Cn1cc(-c2cncc(-c3ccc(N4CCCC4=O)cc3)c2)c2cc(N3CCNCC3)cnc21 [Example 56, 1-(4-(5-(1-methyl-5-(piperazin-1-yl)-1H-pyrrolo[2,3-b]pyridin-3-yl)pyridin-3-yl)phenyl)pyrrolidin-2-one]
22 | 1 to 2.5 µM | > 5 µM | 1 to 2.5 µM | CN(C)C(=O)c1ccc(-c2cc(-c3ccnc(CNC(=O)c4ccc(N)cc4)c3)cnc2N)nc1 [Example 188, 2′-amino-2″-((4-aminobenzamido)methyl)-N,N-dimethyl-[2,3′:5′,4″-terpyridine]-5-carboxamide]
